Laboratory results as given in US12171230B2, “Herbicidal compositions” (Bayer Aktiengesellschaft, priority 2018, dated 2024).

Experiments:
Type in all cases: in vivo
[1] = tested on: Lolium rigidum (resistant biotype); assay: Post-emergence herbicidal action against Lolium rigidum (resistant biotype)
Galium aparine = assay: Post-emergence herbicidal action against Galium aparine; settings: for Herbicidal action: 28 DAT
Summary of the method: (§1)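 Weeds sown in sandy loam pots in greenhouse; treated post-emergence at three-leaf stage (three weeks after sowing) by spraying formulated compositions at various dosages in 300 to 800 l/ha water. Visual scoring versus untreated controls after about 3 to 4 weeks; synergism judged against Colby expected values.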

Alopecurus myosuroides = assay: Post-emergence herbicidal action against Alopecurus myosuroides
From the text: (§2) The following abbreviations are used in the description and the tables that follow: • g of a.i./ha=grams of active substance (active ingredient) (=100% active compound) per hectare; • The sum total of the effects of the individual applications is reported under E^A; • expected values according to Colby are each reported under E^C.
(§3) The rating period is reported in days after application (DAT).

Centaurea cyano = assay: Post-emergence herbicidal action against Centaurea cyano
Summary of the method: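 Greenhouse pot-grown plants sprayed post-emergence at the three-leaf stage, three weeks after sowing, with spray-powder or emulsion-concentrate formulations at various dosages in 300 to 800 l/ha water on green parts.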

Lolium rigidum [2] = assay: Post-emergence herbicidal action against Lolium rigidum
From the text: as §2, §3

Phalaris minor [3] = assay: Post-emergence herbicidal action against Phalaris minor
Lamium purpureum = assay: Post-emergence herbicidal action against Lamium purpureum; settings: for Herbicidal action: 1 g a.i./ha
Method: When the observed efficacies exceed the formal sum total of the values of the tests with individual applications, they also exceed the expected value according to Colby, which is calculated using the formula below and is likewise regarded as an indication of synergism (cf. S. R. Colby; in Weeds 15 (1967) p. 20 to 22): E^C=A+B−([…])
Here: • A=efficacy of the active compound (A) in % at an application rate of a g a.i./ha; • B=efficacy of the active compound (B) in % at an application rate of b g a.i./ha; • E^C=expected value of the effect of the combination (A)+(B) in % at the combined application rate a+b g a.i./ha.
Seeds or rhizome pieces of mono- and dicotyledonous weeds are placed in sandy loam in pots, covered with soil and grown in a greenhouse under good growth conditions (temperature, air humidity, water supply). Three weeks after sowing, the test plants were treated at the three-leaf stage with the compositions according to the invention. The compositions according to the invention formulated as spray powders or as emulsion concentrates were sprayed onto the green plant parts in various dosages with an application rate of 300 to 800 l/ha of water (equivalent). After the test plants have been left to stand in the greenhouse under optimal growth conditions for about 3 to 4 weeks, the action of the preparations is scored visually in comparison to untreated controls. The compositions according to the invention also have good post-emergence herbicidal activity against a broad spectrum of economically important gramineous and broadleaf weeds.

Poa annua = assay: Post-emergence herbicidal action against Poa annua
Summary of the method: as §1

Bromus sterilis [4] = assay: Post-emergence herbicidal action against Bromus sterilis
From the text: as §2, §3

Matricaria inodora = assay: Post-emergence herbicidal action against Matricaria inodora; settings: for Herbicidal action: 1 g a.i./ha
Veronica hederifolia = assay: Post-emergence herbicidal action against Veronica hederifolia; settings: 0.17 g of a.i./ha
Viola tricolor [5] = assay: Post-emergence herbicidal action against Viola tricolor; settings: (Z119) post-emergence; g of a.i./ha: 16, 270, 16 + 270
From the text: as §2, §3

Bromus sterilis [6] = assay: Post-emergence herbicidal action against Bromus sterilis; remark: listed apart in the source
Phalaris minor [7] = assay: Post-emergence herbicidal action against Phalaris minor; remark: listed apart in the source
[8] = tested on: Lolium rigidum (resistant biotype); assay: Post-emergence herbicidal action against Lolium rigidum (resistant biotype); settings: (Z119) post-emergence; g of a.i./ha: 1, 270, 1 + 270
Summary of the method: (§4)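 Rates are given as grams of active ingredient (100% active compound) per hectare. E^A is the summed effect of the individual applications and E^C the expected value by Colby, with ratings timed in days after application (DAT).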

Phalaris minor [9] = assay: Post-emergence herbicidal action against Phalaris minor; settings: (Z119) post-emergence; for Herbicidal action 28 DAT against Phalaris minor: g of a.i./ha: 16, 4, 270, 90, 30, 16 + 270, 16 + 90, 16 + 30, 4 + 270, 4 + 30
Summary of the method: as §4

Lolium rigidum [10] = assay: Post-emergence herbicidal action against Lolium rigidum; remark: listed apart in the source
Viola tricolor [11] = assay: Post-emergence herbicidal action against Viola tricolor

COc1nn(C(=O)NS(=O)(=O)c2c(C(=O)O)csc2C)c(=O)n1C [(B2.68) Thiencarbazone]
Herbicidal action against Lolium rigidum (resistant biotype) ([1]; 14 DAT, 0.17 g of a.i./ha): 0% | Herbicidal action against Lolium rigidum (resistant biotype) ([1]; 14 DAT, 0.5 g of a.i./ha): 0% | Herbicidal action against Lolium rigidum (resistant biotype) ([1]; 14 DAT, 1.5 g of a.i./ha): 0% | Herbicidal action against Lolium rigidum (resistant biotype) ([1]; 28 DAT, 0.5 g of a.i./ha): 10% | Herbicidal action against Lolium rigidum (resistant biotype) ([1]; 28 DAT, 1.5 g of a.i./ha): 20% | Herbicidal action 14 DAT against Galium aparine (Galium aparine; 0.17 g of a.i./ha): 60% | Herbicidal action 28 DAT against Galium aparine (Galium aparine; 0.17 g of a.i./ha): 50% | Herbicidal action 14 DAT against Alopecurus myosuroides (Alopecurus myosuroides; 0.5 g of a.i./ha): 40% | Herbicidal action 14 DAT against Alopecurus myosuroides (Alopecurus myosuroides; 1.5 g of a.i./ha): 35% | Herbicidal action 28 DAT against Alopecurus myosuroides (Alopecurus myosuroides; 1.5 g of a.i./ha): 30% | Herbicidal action 14 DAT against Centaurea cyanus (Centaurea cyano; 0.17 g of a.i./ha): 0% | Herbicidal action 28 DAT against Centaurea cyanus (Centaurea cyano; 0.17 g of a.i./ha): 0% | Herbicidal action 28 DAT against Centaurea cyanus (Centaurea cyano; 1.5 g of a.i./ha): 35% | Herbicidal action 14 DAT against Lolium rigidum (Lolium rigidum [2]; 0.5 g of a.i./ha): 60% | Herbicidal action 28 DAT against Lolium rigidum (Lolium rigidum [2]; 0.5 g of a.i./ha): 10% | Herbicidal action 14 DAT against Lolium rigidum (Lolium rigidum [2]; 1.5 g of a.i./ha): 85% | Herbicidal action 28 DAT against Lolium rigidum (Lolium rigidum [2]; 1.5 g of a.i./ha): 50% | Herbicidal action against Phalaris minor (Phalaris minor [3]; 14 DAT, 0.17 g of a.i./ha): 0% | Herbicidal action against Phalaris minor (Phalaris minor [3]; 14 DAT, 0.5 g of a.i./ha): 15% | Herbicidal action against Phalaris minor (Phalaris minor [3]; 14 DAT, 1.5 g of a.i./ha): 10% | Herbicidal action against Phalaris minor (Phalaris minor [3]; 28 DAT, 0.5 g of a.i./ha): 0% | Herbicidal action against Phalaris minor (Phalaris minor [3]; 28 DAT, 1.5 g of a.i./ha): 20% | Herbicidal action 28 DAT against Lamium purpureum L. (Lamium purpureum; 0.17 g of a.i./ha): 35% | Herbicidal action against Poa annua L. (Poa annua; 14 DAT, 0.5 g of a.i./ha): 10% | Herbicidal action against Poa annua L. (Poa annua; 14 DAT, 1.5 g of a.i./ha): 15% | Herbicidal action against Poa annua L. (Poa annua; 28 DAT, 0.5 g of a.i./ha): 0% | Herbicidal action against Poa annua L. (Poa annua; 28 DAT, 1.5 g of a.i./ha): 25% | Herbicidal action 14 DAT against Bromus sterilis (Bromus sterilis [4]; 0.5 g of a.i./ha): 15% | Herbicidal action 28 DAT against Bromus sterilis (Bromus sterilis [4]; 0.5 g of a.i./ha): 15% | Herbicidal action 14 DAT against Bromus sterilis (Bromus sterilis [4]; 1.5 g of a.i./ha): 20% | Herbicidal action 28 DAT against Bromus sterilis (Bromus sterilis [4]; 1.5 g of a.i./ha): 20% | Herbicidal action against Matricaria inodora (Matricaria inodora; 14 DAT, 0.17 g of a.i./ha): 15% | Herbicidal action against Matricaria inodora (Matricaria inodora; 14 DAT, 0.5 g of a.i./ha): 50% | Herbicidal action against Matricaria inodora (Matricaria inodora; 28 DAT, 0.17 g of a.i./ha): 0% | Herbicidal action against Veronica hederifolia (Veronica hederifolia; 14 DAT): 70% | Herbicidal action against Veronica hederifolia (Veronica hederifolia; 28 DAT): 70%

C=C[C@]1(C(=O)N[C@@H]2C=C(C(=O)OC)OC2)CC(c2cc(F)cc(F)c2)=NO1 [Compound A5, methyl (3R)-3-[[(5S)-3-(3,5-difluorophenyl)-5-vinyl-4H-isoxazole-5-carbonyl]amino]-2,3-dihydrofuran-5-carboxylate]
Herbicidal action 14 DAT against Viola tricolor (Viola tricolor [5]): 60% | Herbicidal action (Galium aparine; 1 g a.i./ha): 50% | Herbicidal action (Galium aparine; 16 g a.i./ha): 70% | Herbicidal action 14 DAT against Galium aparine (Galium aparine; (Z119) post-emergence, g of a.i./ha by row: 1, 30, 1 + 30): 60% | Herbicidal action (Bromus sterilis [6]; 14 DAT, 4 g a.i./ha): 75% | Herbicidal action (Bromus sterilis [6]; 14 DAT, 16 g a.i./ha): 80% | Herbicidal action (Bromus sterilis [6]; 28 DAT, 1 g a.i./ha): 30% | Herbicidal action 14 DAT against Alopecurus myosuroides (Alopecurus myosuroides; (Z119) post-emergence, g of a.i./ha: 16, 1, 270, 16 + 270, 1 + 270, 1 g of a.i./ha): 50% | Herbicidal action 14 DAT against Alopecurus myosuroides (Alopecurus myosuroides; (Z119) post-emergence, g of a.i./ha: 16, 1, 270, 16 + 270, 1 + 270, 16 g of a.i./ha): 85% | Herbicidal action (Phalaris minor [7]; 14 DAT, 1 g a.i./ha): 60% | Herbicidal action (Phalaris minor [7]; 14 DAT, 16 g a.i./ha): 85% | Herbicidal action (Phalaris minor [7]; 28 DAT, 1 g a.i./ha): 30% | Herbicidal action (Phalaris minor [7]; 28 DAT, 16 g a.i./ha): 70% | Herbicidal action (Centaurea cyano; 14 DAT, 1 g a.i./ha): 20% | Herbicidal action (Centaurea cyano; 28 DAT, 16 g a.i./ha): 75% | Herbicidal action 28 DAT against Centaurea cyanus (Centaurea cyano; (Z119) post-emergence, g of a.i./ha: 16, 270, 90, 30, 16 + 270, 16 + 90, 16 + 30): 75% | Herbicidal action 28 DAT against Lolium rigidum (Lolium rigidum [2]; (Z119) post-emergence, g of a.i./ha: 16, 4, 1, 270, 90, 30, 16 + 270, 16 + 90, 16 + 30, 4 + 270, 4 + 90, 4 + 30, 1 + 270, 1 g of a.i./ha): 30% | Herbicidal action 28 DAT against Lolium rigidum (Lolium rigidum [2]; (Z119) post-emergence, g of a.i./ha: 16, 4, 1, 270, 90, 30, 16 + 270, 16 + 90, 16 + 30, 4 + 270, 4 + 90, 4 + 30, 1 + 270, 4 g of a.i./ha): 50% | Herbicidal action 28 DAT against Lolium rigidum (Lolium rigidum [2]; (Z119) post-emergence, g of a.i./ha: 16, 4, 1, 270, 90, 30, 16 + 270, 16 + 90, 16 + 30, 4 + 270, 4 + 90, 4 + 30, 1 + 270, 16 g of a.i./ha): 60% | Herbicidal action (Lamium purpureum; 14 DAT): 60% | Herbicidal action (Lamium purpureum; 28 DAT): 40% | Herbicidal action 14 DAT against Lamium purpureum L. (Lamium purpureum; (Z119) post-emergence, g of a.i./ha by row: 16, 30, 16 + 30): 80% | Herbicidal action 28 DAT against Lolium rigidum (resistant biotype) [8]: 20% | Herbicidal action (Poa annua; 14 DAT, 1 g a.i./ha): 30% | Herbicidal action (Poa annua; 14 DAT, 16 g a.i./ha): 70% | Herbicidal action (Poa annua; 28 DAT, 1 g a.i./ha): 20% | Herbicidal action 28 DAT against Phalaris minor (Phalaris minor [9]; 4 g of a.i./ha): 60% | Herbicidal action 28 DAT against Phalaris minor (Phalaris minor [9]; 16 g of a.i./ha): 70% | Herbicidal action 14 DAT against Phalaris minor (Phalaris minor [9]; g of a.i./ha: 16, 4, 270, 90, 270, 16 + 270, 16 + 90, 4 + 270): 85% | Herbicidal action 28 DAT against Bromus sterilis (Bromus sterilis [4]; (Z119) post-emergence, g of a.i./ha: 1, 270, 1 + 270): 30% | Herbicidal action 14 DAT against Bromus sterilis (Bromus sterilis [4]; (Z119) post-emergence, g of a.i./ha: 1, 270, 90, 1 + 270, 1 + 90): 50% | Herbicidal action (Matricaria inodora; 14 DAT): 30% | Herbicidal action (Matricaria inodora; 28 DAT): 10% | Herbicidal action (Lolium rigidum [10]; 14 DAT, 1 g a.i./ha): 30% | Herbicidal action (Lolium rigidum [10]; 14 DAT, resistant biotype, 1 g a.i./ha): 30% | Herbicidal action (Lolium rigidum [10]; 14 DAT, resistant biotype, 16 g a.i./ha): 70% | Herbicidal action (Lolium rigidum [10]; 28 DAT, 1 g a.i./ha): 30% | Herbicidal action (Lolium rigidum [10]; 28 DAT, 16 g a.i./ha): 60% | Herbicidal action (Lolium rigidum [10]; 28 DAT, resistant biotype, 1 g a.i./ha): 20% | Herbicidal action (Viola tricolor [11]; 14 DAT, 16 g a.i./ha): 60% | Herbicidal action (Viola tricolor [11]; 28 DAT, 4 g a.i./ha): 40% | Herbicidal action (Viola tricolor [11]; 28 DAT, 16 g a.i./ha): 40%
